Assay: in vitro
Conditions: human, hela cells, % viability

Row | Structure (SMILES) | viability at 28.5 h, 10 µM [%]
1 | O=C(Cc1ccc(-c2ccccc2)cc1)N1CCc2nc3ccccc3c(=O)n2CC1 [CBK286312] | 97.2
2 | O=C(Cn1c(-c2ccco2)cc2cccnc21)N1CCCC1 [CBK282683] | 84.8
3 | CC1CC(N(C(=O)c2cccc(Br)c2)c2ccccc2)c2ccccc2N1 (stereo not drawn) [CBK262966] | 96.7
4 | Cc1ccccc1CNC(=O)c1ccc(C)c([N+](=O)[O-])c1 [CBK264010] | 110
5 | CCc1nc2ccc(NC(=O)CCCc3ccncc3)cc2[nH]1 [CBK283268] | 111
6 | Cc1ccc(C(F)(F)F)cc1NS(=O)(=O)c1cc(OC2CCNCC2)c2occc2c1 [CBK082763C] | 90.1
7 | COc1ccc(C(=O)N(CCC(C)C)Cc2nc(C)c(C)n2Cc2ccccc2Cl)c(OC)c1 [CBK093441] | 86.2
8 | CN1CC[C@@H]2[C@H]1C(=O)NC[C@H](CCC(=O)NCc1cccs1)N2C [CBK289028] | 115
9 | Cc1c(-c2ccc(N(C)C)nc2)c(C(F)(F)F)nn1C [CBK307320] | 83.5
10 | CCn1c(CC2CCN(C(=O)c3ccc(C)c(C)c3)CC2)nn(C)c1=O [CBK307133] | 87.8
11 | CCCCn1c(SC(C)C(N)=O)nc2cc(C(=O)OC)ccc2c1=O (stereo not drawn) [CBK305877] | 84
12 | CCn1cc(S(=O)(=O)NCc2ccccc2OC)cn1 [CBK270304] | 98.1
13 | COc1ccc(C(=O)Nc2ccc(N3CCOCC3)c(Cl)c2)cc1[N+](=O)[O-] [CBK263894] | 100
14 | CCN1CCN(S(=O)(=O)c2cccc3c(S(=O)(=O)N4CCN(CC)CC4)cccc23)CC1 [CBK269611] | 90.4
15 | CCC(=O)c1cccc2c1NC=C1C(=O)CC(C)(C)CC1=N2 [CBK265821] | 108
16 | O=C(Nc1cccc(Cl)c1)N(Cc1ccncc1)CC1CCCO1 (stereo not drawn) [CBK305362] | 93
17 | Cc1cc(N2CCCC2)ccc1NC(=O)CCn1c(-c2cccs2)n[nH]c1=S [CBK297883] | 86.6
18 | CN(C)CCn1c(=O)[nH]c2ncc(-c3ccoc3)nc21 [CBK064294] | 92.6
19 | Cc1c(C(=O)N(C)C2CCNCC2)nnn1-c1ccc2ncccc2c1 [CBK306500C] | 84.8
20 | CC1(C)CCN(Cc2ccccc2)C1CC#N (stereo not drawn) [CBK006978C] | 102
21 | O=[N+]([O-])c1ccc(CN2CCC(Oc3cncc(OCCN4CCOCC4)n3)C2)cc1 (stereo not drawn) [CBK084485] | 95.2
22 | Cc1cccc(C)c1NC(=S)N1CCC2(CC1)OCCO2 [CBK016408] | 117
23 | Cc1ccc(S(=O)(=O)NCCC(=O)NO)cc1 [CBK023472] | 110

Row | Structure (SMILES) | viability at 28.5 h, 10 µM [%]
24 | NC(=S)Nn1c(CCC(=O)O)ccc1-c1cccs1 [CBK265952] | 92.3
25 | C=CCn1c(Cc2csc(NC(=O)c3cc(C)cc(C)c3)n2)n[nH]c1=S [CBK295358] | 77
26 | Cc1ccc(S(=O)(=O)N2C[C@H]3C[C@H](NC(=O)C(C)C)[C@H]3C2)cc1 [CBK285317] | 107
27 | COc1cc(OC)cc(C(=O)OCc2ccc(F)cc2)c1 [CBK267996] | 95.6
28 | O=C(CSc1ncn(-c2ccccc2)n1)Nc1ccc2[nH]c(=O)[nH]c2c1 [CBK268212] | 106
29 | CCCCc1ccc(Nc2ncnc3nc[nH]c23)cc1 [CBK288006] | 96.3
30 | Cc1[nH]c2ccccc2c1C(=O)CSc1nccn1Cc1ccccc1 [CBK297905] | 76.6
31 | CCc1n[nH]c(C(=O)N2CCc3ncc(Cl)cc3C2)c1C [CBK284856] | 92.8
32 | Cc1[nH]c2ccccc2c1C(=O)CSc1n[nH]c(N)n1 [CBK268056] | 98.3
33 | Cc1cc(C)nc(Nc2ncc(O)n2-c2ccccc2)n1 [CBK287914] | 93.5
34 | CCOc1cc(NC2CCN(C(=O)C3(CCOC)CC3)CC2)ncn1 [CBK304434] | 98.2
35 | COCC(=O)N1C[C@@H](c2ccc(F)c(F)c2)[C@@]2(CCCC(=O)N2)C1 [CBK283358] | 103
36 | COc1ccc(OCc2nc(C)cc(=O)n2CC(=O)NC(C)C)cc1 [CBK300525] | 99
37 | c1coc(CNc2nc(-c3ccoc3)cn3ccnc23)c1 [CBK066610] | 98.8
38 | COc1ccc(C[C@@]23CC[C@H](NC(=O)NCCc4ccccc4)C[C@@H]2N(C)CC3)cc1 [CBK024127] | 95.2
39 | CCCc1ccc(N(C)C(=O)c2ccc(OCC)cc2)cc1 [CBK161615] | 107
40 | Cc1nn(Cc2ccccc2)c(C)c1NC(=O)CSc1nc2sc3c(c2c(=O)n1C)CCC3 [CBK266069] | 96.4
41 | COc1cccc(-c2cc(C(=O)NCCCN3CCOCC3)c3ccccc3n2)c1 [CBK262630] | 91.7
42 | Cc1cc(C)n(C2CCN(Cc3nc4ccccc4n3C)CC2)n1 [CBK281621] | 84.3
43 | Cc1ccsc1C(=O)N1CCN(Cc2cc(=O)n3ccccc3n2)CC1 [CBK305044] | 102
44 | Cn1ncc2c(NCC(=O)N3CCNCC3)nc(C(C)(C)C)nc21 [CBK307702] | 120
45 | COc1ccc(CC(=O)N2CCCC2c2nc3ccccc3[nH]2)cc1 (stereo not drawn) [CBK283666] | 93.4
46 | O=C(NC1CCCC1)c1ccccc1Cl [CBK001992] | 98.3

Row | Structure (SMILES) | viability at 28.5 h, 10 µM [%]
47 | COc1c(C)cc(-c2ncnc(C)c2C)cc1C [CBK306884] | 67.6
48 | Fc1ccc(Sc2ccc(C(F)(F)F)cn2)cc1 [CBK115235] | 106
49 | Fc1ccc([C@@H]2COC[C@H]2NCc2ccsc2)cc1 [CBK282598] | 100
50 | Clc1ccc(-n2c(COc3cccc4cccnc34)nnc2SCc2ccccc2)cc1 [CBK268502] | 103
51 | Cn1c2ccc(Br)cc2c2nnc(SCC(=O)N3c4ccccc4Sc4ccccc43)nc21 [CBK263900] | 88.7
52 | COc1ccc(C2CCN(CC(=O)NC(C)(C)C)CC2)cc1 [CBK283558] | 92.7
53 | COCCNc1nc(-c2cc(OC)c(OC)c(OC)c2)cnc1N [CBK063559] | 112
54 | COc1ccc(S(=O)(=O)N(CC(=O)N2CCC(C(N)=O)CC2)c2ccccc2)cc1 [CBK265301] | 108
55 | Nc1cc(O)nc(SCC(=O)N2CCN(c3ccccc3)CC2)n1 [CBK267925] | 86
56 | O=C1CN(C(=O)NCc2cccc3ccccc23)CCN1 [CBK155852] | 102
57 | CC1=CC2=NC3(CCC3)[C@@H]3C[C@@H](O)[C@@H](O)[C@@H]3N2O1 [CBK303257] | 92
58 | CC1(C)CC(=O)c2sc(NC(=O)c3ccc4ncccc4c3)nc2C1 [CBK144105] | 92.2
59 | Cc1ccccc1C(=O)N1CCN(Cc2cc(=O)n3ccsc3n2)CC1 [CBK304595] | 90.9
60 | COc1ccc(N2CCN(c3cc(-c4ccc(CCC(=O)O)cc4)ncn3)CC2)cc1OC [CBK091030] | 94.1
61 | CC(C)(C)OC(=O)NCCCn1cc(C(=O)O)nn1 [CBK287028] | 90.4
62 | CCN(CC)C(=O)c1sc2ccccc2c1Cl [CBK067853] | 103
63 | O=C1NC(=O)C(CC(=O)N2CCC3(CCN(Cc4ccccc4)C3)C2)N1 (stereo not drawn) [CBK136850] | 88.8
64 | Cc1ccc(C2(O)CCN(Cc3c(C)nc4sccn34)CC2)cc1 [CBK282734] | 85.8
65 | Cc1ccccc1Oc1ccccc1NC(=O)CN1CCCCC1 [CBK015781C] | 98.3
66 | NS(=O)(=O)c1ccc(CCNC(=O)Nc2ccc(Cl)c(Cl)c2)cc1 [CBK269133] | 90.3
67 | Cc1ccc(-n2c(SCC(=O)NCc3ccccc3)nnc2-c2ccc(Cl)cc2)cc1C [CBK265909] | 97.9
68 | Cn1ccnc1Sc1cc(C(F)(F)F)ccn1 [CBK093798] | 80.5
69 | CCC1(CC)OC(N[C@@H](C)c2ccc(Br)cc2)=NC1=O [CBK126665] | 102

Row | Structure (SMILES) | viability at 28.5 h, 10 µM [%]
70 | CCCn1nc(C)c(-c2cncn2CCn2nc(C)c(C)c2C)c1C [CBK281444] | 83.5
71 | Cc1cc(N2CCOCC2)nc2ccc(NC(=O)c3ccncc3)cc12 [CBK288587] | 99.3
72 | Cc1ccccc1Cn1c(=O)sc2ccccc21 [CBK025408] | 94.9
73 | CCOC(=O)C(C)n1nc(CC)n2c(cc3ccsc32)c1=O (stereo not drawn) [CBK284127] | 103
74 | S=C1NCN(Cc2ccc3c(c2)OCO3)CN1 [CBK267899] | 87.1
75 | CC(C)Cc1cc(CNS(=O)(=O)Cc2ccccc2F)on1 [CBK281505] | 96.6
76 | CCOC(=O)c1ccc(N/C=C(\C#N)c2nc(-c3cc4ccccc4oc3=O)cs2)cc1 [CBK262356] | 83.1
77 | O=C(C1CC1)N1C[C@@H](c2ccccc2)[C@H](c2cc(C(F)F)[nH]n2)C1 [CBK284791] | 91.1
78 | Cc1ccccc1OCCNS(=O)(=O)c1cccc([N+](=O)[O-])c1 [CBK264195] | 106
79 | CC1CN(CCC(=O)O)Cc2cc(Cl)ccc2O1 (stereo not drawn) [CBK286899] | 103
80 | CCCc1n[nH]c(C2CCCC2)c1C(=O)OCC [CBK115727] | 85.1
81 | CN1CCN(NC(=O)c2cc(C(=O)c3ccc(Cl)cc3Cl)c[nH]2)CC1 [CBK107420] | 91.4
82 | CCSc1ccnc2c1c(=O)n(C)c(=O)n2C [CBK287749] | 98.9
83 | COCCN(C(=O)c1[nH]c2c(F)cccc2c1C)C1CCN(C)CC1 [CBK307386] | 95
84 | CCOC(=O)c1[nH]c2ccccc2c1NS(=O)(=O)Cc1ccccc1[N+](=O)[O-] [CBK047426] | 94.7
85 | Cc1cc(C)n(C(C(=O)NCC2(C)COC2)C(C)C)n1 (stereo not drawn) [CBK281758] | 85.9
86 | CN(C)S(=O)(=O)c1ccc(CCC(=O)O)cc1 [CBK287216] | 92
87 | CCOC(=O)C(C(C)=O)(N1CCOCC1)N1CCOCC1 [CBK261173] | 90.2
88 | CCC1C(=O)NCCN1C(=O)c1ccc2c(c1)ncn2C (stereo not drawn) [CBK281709] | 82.4
89 | CC(C)C(=O)Nc1ccc(-c2csc(N3CCN(C)CC3)n2)cc1 [CBK304317C] | 93.5
90 | Cc1cc(NC(=O)C(C)Oc2ccccc2)nc2c1c(=O)oc1ccccc12 (stereo not drawn) [CBK291153] | 95.8

Reference: paper PMC12040169 (PLOS Biology, 2025)
